# Assay results taken from US20120245161A1 (SANOFI, priority 2009, published 2012).
# Where “and” joins values, the source holds several entries; their conditions need not be identical. Equal entries are not always repeated. Structures can show the parent of a compound that is named as a salt.
# Biological target: T1, recombinant human beta tryptase (Homo sapiens, UniProt P20231)
# T1 construct: made in house; host or cells: yeast cells
# Assay: beta-Tryptase inhibition, chromogenic enzyme assay (substrate S2366, read at 405 nm)
# Type: biochemical
# Details: Ki calculated from IC50: Ki=IC50/(1+[Substrate]/Km); 0.5 mM substrate, room temperature; read-out: Tryptase Ki
# Source text: Inhibition of this catalytic activity may be measured by the in vitro enzyme assay and the cellular assay.
# Tryptase inhibition activity is confirmed using either isolated human lung tryptase or recombinant human beta tryptase expressed in yeast cells. Essentially equivalent results are obtained using isolated native enzyme or the expressed enzyme. The assay procedure employs a 96 well microplate (Costar 3590) using L-pyroglutamyl-L-prolyl-L-arginine-para-nitroanilide (S2366: Quadratech) as substrate (essentially as described by McEuen et. al. Biochem Pharm, 1996, 52, pages 331-340). Assays are performed at room temperature using 0.5 mM substrate (2×Km) and the microplate is read on a microplate reader (Beckman Biomek Plate reader) at 405 nm wavelength.
# Materials and Methods for Tryptase primary screen (Chromogenic assay)
# S2366 (Stock solutions of 2.5 mM).
# Purified recombinant beta Tryptase Stocks of 310 μg/mL. Protocol (Single point determination) • Add 60 μL of diluted substrate (final concentration of 500 μM in assay buffer) to each well • Add compound in duplicates, final concentration of 20 volume 20 • Add enzyme at a final concentration of 50 ng/mL in a volume of 20 • Total volume for each well is 100 • Agitate briefly to mix and incubate at room temp in the dark for 30 minutes • Read absorbencies at […] Each plate has the following controls: • Totals: 60 μL of substrate, 20 μL of buffer (with 0.2% final concentration of DMSO), • 20 μL of enzyme Non-specific: 60 μL of substrate, 40 μL of buffer (with 0.2% DMSO) Totals: 60 μL of substrate, 20 μL of buffer (No DMSO), 20 μL of enzyme Non-specific: 60 μL of substrate, 40 μL of buffer (No DMSO) Protocol (IC50 and Ki determination)
# The protocol is essentially the same as above except that the compound is added in duplicates at the following final concentrations: 0.01, 0.03, 0.1, 0.3, 1, 3, 10 μM (All dilutions carried out manually). For every assay, whether single point or IC50 determination, a standard compound is used to derive IC50 for comparison. From the IC50 value, the Ki can be calculated using the following formula: Ki=IC50/(1+[Substrate]/Km).
# T1 sequence (P20231 31-275): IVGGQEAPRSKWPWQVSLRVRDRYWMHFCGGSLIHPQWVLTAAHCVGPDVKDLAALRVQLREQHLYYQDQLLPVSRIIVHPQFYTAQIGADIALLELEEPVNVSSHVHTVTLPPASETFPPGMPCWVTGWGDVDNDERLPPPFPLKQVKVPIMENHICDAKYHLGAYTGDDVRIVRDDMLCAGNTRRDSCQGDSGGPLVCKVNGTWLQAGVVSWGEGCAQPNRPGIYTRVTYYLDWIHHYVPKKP
row,Ki [nM],SMILES
1,75,"Cc1cccc2c(C(=O)N3CCC(c4cc(CN)ccc4F)CC3)cn(CCN3CCCC3)c12 [Example 13, [4-(5-Aminomethyl-2-fluoro-phenyl)-piperidin-1-yl]-[7-methyl-1-(2-pyrrolidin-1-yl-ethyl)-1H-indol-3-yl]-methanone dihydrochloride]"

# Same assay, conditions: Tryptase Ki (nM), Ki calculated from IC50: Ki=IC50/(1+[Substrate]/Km); 0.5 mM substrate, room temperature
row,SMILES,Ki
1,"COCCn1cc(C(=O)N2CCC(c3cc(CN)ccc3F)CC2)c2cccc(OC(F)(F)F)c21 [Example 1, [4-(5-Aminomethyl-2-fluoro-phenyl)-piperidin-1-yl]-[1-(2-methoxy-ethyl)-7-trifluoromethoxy-1H-indol-3-yl]-methanone hydrochloride]",47 nM
2,"Cc1cccc2c(C(=O)N3CCC(c4cccc(CN)c4)CC3)cn(CCN3CCOCC3)c12 [Example 2, [4-(3-Aminomethyl-phenyl)-piperidin-1-yl]-[7-methyl-1-(2-morpholin-4-yl-ethyl)-1H-indol-3-yl]-methanone hydrochloride]",234 nM
3,"Cc1cccc2c(C(=O)N3CCC(c4cc(CN)ccc4F)CC3)cn(CCN3CCOCC3)c12 [Example 3, [4-(5-Aminomethyl-2-fluoro-phenyl)-piperidin-1-yl]-[7-methyl-1-(2-morpholin-4-yl-ethyl)-1H-indol-3-yl]-methanone hydrochloride]",109 nM
4,"Cc1cccc2c(C(=O)N3CCC(c4cc(CN)ccc4F)CC3)cn(CCCc3ccccc3)c12 [Example 4, [4-(5-Aminomethyl-2-fluoro-phenyl)-piperidin-1-yl]-[7-methyl-1-(3-phenyl-propyl)-1H-indol-3-yl]-methanone hydrochloride]",1300 nM
5,"Cc1cccc2c(C(=O)N3CCC(c4cc(CN)ccc4F)CC3)cn(CCc3ccccc3)c12 [Example 5, [4-(5-Aminomethyl-2-fluoro-phenyl)-piperidin-1-yl]-(7-methyl-1-phenethyl-1H-indol-3-yl)-methanone hydrochloride]",96 nM and 56 nM
6,"COCCn1cc(C(=O)N2CCC(c3cc(CN)ccc3F)CC2)c2cccc(C3CC3)c21 [Example 6, [4-(5-Aminomethyl-2-fluoro-phenyl)-piperidin-1-yl]-[7-cyclopropyl-1-(2-methoxy-ethyl)-1H-indol-3-yl]-methanone hydrochloride]",20 nM
7,"Cc1cccc2c(C(=O)N3CCC(c4cc(CN)ccc4F)CC3)cn(CCCN3CCOCC3)c12 [Example 7, [4-(5-Aminomethyl-2-fluoro-phenyl)-piperidin-1-yl]-[7-methyl-1-(3-morpholin-4-yl-propyl)-1H-indol-3-yl]-methanone hydrochloride]",139 nM
8,"Cc1cccc2c(C(=O)N3CCC(c4cc(CN)ccc4F)CC3)cn(CCC3CCCCN3C)c12 (stereo not drawn) [Example 8, [4-(5-Aminomethyl-2-fluoro-phenyl)-piperidin-1-yl]-{7-methyl-1-[2-(1-methyl-piperidin-2-yl)-ethyl]-1H-indol-3-yl}-methanone hydrochloride]",35 nM
9,"COCCn1cc(C(=O)N2CCC(c3cc(CN)ccc3C(F)F)CC2)c2cccc(C)c21 [Example 9, [4-(5-Aminomethyl-2-difluoromethyl-phenyl)-piperidin-1-yl]-[1-(2-methoxy-ethyl)-7-methyl-1H-indol-3-yl]-methanone hydrochloride]",203 nM
10,"Cc1cccc2c(C(=O)N3CCC(c4cc(CN)ccc4F)CC3)cn(CCCc3cccnc3)c12 [Example 10, [4-(5-Aminomethyl-2-fluoro-phenyl)-piperidin-1-yl]-[7-methyl-1-(3-pyridin-3-yl-propyl)-1H-indol-3-yl]-methanone dihydrochloride]",175 nM
11,"COCCn1cc(C(=O)N2CCC(c3cc(CN)ccc3F)CC2)c2cccc(C(F)(F)F)c21 [Example 11, [4-(5-Aminomethyl-2-fluoro-phenyl)-piperidin-1-yl]-[1-(2-methoxy-ethyl)-7-trifluoromethyl-1H-indol-3-yl]-methanone hydrochloride]",56 nM
12,"COCCn1cc(C(=O)N2CCC(c3cc(CN)ccc3F)CC2)c2cccc(C(F)F)c21 [Example 12, [4-(5-Aminomethyl-2-fluoro-phenyl)-piperidin-1-yl]-[7-difluoromethyl-1-(2-methoxy-ethyl)-1H-indol-3-yl]-methanone hydrochloride]",26 nM
13,"COCCn1cc(C(=O)N2CCC(c3cc(CN)ccc3F)CC2)c2cccc(OC(F)F)c21 [Example 14, [4-(5-Aminomethyl-2-fluoro-phenyl)-piperidin-1-yl]-[7-difluoromethoxy-1-(2-methoxy-ethyl)-1H-indol-3-yl]-methanone hydrochloride]",83 nM
14,"NCc1ccc(F)c(C2CCN(C(=O)c3cn(CCc4ccccc4)c4ccccc34)CC2)c1 [Example 15, [4-(5-Aminomethyl-2-fluoro-phenyl)-piperidin-1-yl]-(1-phenethyl-1H-indol-3-yl)-methanone hydrochloride]",18 nM
15,"Cc1cccc2c(C(=O)N3CCC(c4cc(CN)ccc4F)CC3)cn(CCCF)c12 [Example 16, [4-(5-Aminomethyl-2-fluoro-phenyl)-piperidin-1-yl]-[1-(3-fluoro-propyl)-7-methyl-1H-indol-3-yl]-methanone hydrochloride]",97 nM
16,"Cc1cccc2c(C(=O)N3CCC(c4cc(CN)ccc4F)CC3)cn(CCCO)c12 [Example 17, hydrochloride]",37 nM
17,"COCCn1cc(C(=O)N2CCC(c3cc(CN)ccc3F)CC2)c2cccc(C#N)c21 [Example 18, 3-[4-(5-Aminomethyl-2-fluoro-phenyl)-piperidine-1-carbonyl]-1-(2-methoxy-ethyl)-1H-indole-7-carbonitrile]",40 nM
18,"COCCn1cc(C(=O)N2CCC(c3cc(CN)ccc3F)CC2)c2cccc(C3CCC3)c21 [Example 19, [4-(5-Aminomethyl-2-fluoro-phenyl)-piperidin-1-yl]-[7-cyclobutyl-1-(2-methoxy-ethyl)-1H-indol-3-yl]-methanone hydrochloride]",94 nM
19,"Cc1cccc2c(C(=O)N3CCC(c4cc(CN)ccc4F)CC3)cn(CCO)c12 [Example 20, [4-(5-Aminomethyl-2-fluoro-phenyl)-piperidin-1-yl]-[1-(2-hydroxy-ethyl)-7-methyl-1H-indol-3-yl]-methanone hydrochloride]",19 nM
20,"Cc1cccc2c(C(=O)N3CCC(c4cc(CN)ccc4F)CC3)cn(CCOCCO)c12 [Example 21, [4-(5-Aminomethyl-2-fluoro-phenyl)-piperidin-1-yl]-{1-[2-(2-hydroxy-ethoxy)-ethyl]-7-methyl-1H-indol-3-yl}-methanone hydrochloride]",28 nM
21,"NCc1ccc(F)c(C2CCN(C(=O)c3cn(CCO)c4c(OC(F)(F)F)cccc34)CC2)c1 [Example 22, [4-(5-Aminomethyl-2-fluoro-phenyl)-piperidin-1-yl]-[1-(2-hydroxy-ethyl)-7-trifluoromethoxy-1H-indol-3-yl]-methanone hydrochloride]",390 nM
22,"COCCn1cc(C(=O)N2CCC(c3cc(CN)ccc3OCC(=O)OC)CC2)c2cccc(C)c21 [Example 23, (4-Aminomethyl-2-{1-[1-(2-methoxy-ethyl)-7-methyl-1H-indole-3-carbonyl]-piperidin-4-yl}-phenoxy)-acetic acid methyl ester hydrochloride]",42 nM

# Same assay, conditions: Tryptase Ki (nM), additional value in parentheses tagged "8923" (code not explained)
row,SMILES,Ki [nM]
1,"Cc1cccc2c(C(=O)N3CCC(c4cc(CN)ccc4F)CC3)cn(CCc3ccccc3)c12 [Example 5, [4-(5-Aminomethyl-2-fluoro-phenyl)-piperidin-1-yl]-(7-methyl-1-phenethyl-1H-indol-3-yl)-methanone hydrochloride]",11
